Data as given in patent publication US20100291041A1, “BACTERIOPHAGE PREPARATION AND USE” (INNOVATIONS-TRANSFER UPHOFF GMBH & CO. KG, priority 2008, published 2010).

Tests used:
Pseudomonas aeruginosa = Pseudomonas aeruginosa versus Staphylococcus aureus; from EP 0 700 249 B1; cited from earlier work
[1] = use in wounds, albumin present; from EP 0 700 249 B1; cited from earlier work
[2] = own microbiological tests
P. aeruginosa biofilms = details: combination with ultrasound below 70 kHz; Qian et al. 1997; cited from earlier work

Row | Substance | activity lower by a factor, in comparison with Staphylococcus aureus (Pseudomonas aeruginosa) | loss of action caused by albumin (in wounds) [1] | loss of action by the factor (effect of albumin) [2] | increase in effect versus antibiotic alone (P. aeruginosa biofilms) [%]
1 | polyhexamethylene biguanide [polyhexanide] | ~10 | considerable loss of action | about 10 | 
2 | gentamicin |  |  |  | > 250
